“And” between values parts separate entries of the source, which are not always exact repeats. Identical values can stand only once.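 Cells were grown in 96-well plates and exposed to each compound for 48 hours at five concentrations; endpoints were interpolated linearly between bracketing concentrations, or set to the highest concentration if not reached. GI50: concentration for 50% inhibition of growth. TGI marks complete inhibition of growth.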
Tested on: MDA-MB-468 breast
Test: NCI tumour cell line growth inhibition, 48 h

Row | SMILES | GI50 | TGI
1 | C=C(CNCCO)[C@@H]1CC[C@]2(CO)CC[C@]3(C)[C@H](CC[C@@H]4[C@@]5(C)CCC(NCCc6ccc(O)cc6)C(C)(C)[C@@H]5CC[C@]43C)[C@@H]12 (some centres not stated) | 0.782 µM | 2.34 µM
2 | Cc1cc(O)cc(C)c1/C=C/c1cncc(C(=O)N(C)C)c1 | > 25 µM | > 25 µM
3 | C=C1C(=O)O[C@H]2[C@H]1CC/C(COC(=O)c1ccc(C(=O)O)s1)=C\CC[C@@]1(C)O[C@@H]21 | 1.22 µM | 3.09 µM
4 | CS(=O)(=O)Nc1cc(-c2ccc3ncc(C#N)c(NCc4ccccc4F)c3c2)cnc1Cl | 0.0781 µM | 1.08 µM
5 | O=[N+]([O-])/C=C\c1ccc2c(c1)OCO2 | 2.17 µM | 5.82 µM
6 | CC1=CC[C@@H]2C(C)(C)[C@@H](O)CC[C@@]2(C)[C@@H]1COc1ccc2ccc(=O)oc2c1 | 3.11 µM | 15 µM
7 | OC1CCC(Oc2cccc3cnc(Nc4ccc5nc[nH]c5c4)nc23)CC1 (configuration not stated) | 0.327 µM | 1.37 µM
8 | CN(C)CCNc1cccc2sc3ccc(O)cc3c(=O)c12 | 1.96 µM | 4.56 µM
9 | COc1cccc2c(=O)c3c(sc12)c(NCCCN)nc1ccccc13 | 1.63 µM | 3.2 µM
10 | O=C(Nc1ccc(Br)cc1)c1cc(Br)cc(Br)c1O | 2.32 µM | 5.66 µM
11 | COc1ccc(-c2cn3ccnc3c(-c3ccc4ncn(C5CCCCC5)c4c3)n2)cc1 | 0.863 µM | > 100 µM
12 | ClCCn1cnc2c(SCc3ccccc3)ncnc21 | 11.1 µM | > 100 µM
13 | Cc1ccc(-c2cc3nc(-c4ccccc4)nc(C(Cl)Cl)n3n2)cc1 | 0.383 µM | 1.31 µM
14 | Cn1cnc([N+](=O)[O-])c1Sc1ncnc2nc[nH]c12 | 2.1 µM and 3.37 µM | 70.3 µM and > 100 µM
15 | CCN(CC)C(=S)SSC1CCCCC1 | 19.4 µM | 49.4 µM
16 | CCCCc1cc(O)ccc1O | 14 µM | 31.7 µM

Row | SMILES | GI50 | TGI
17 | O=Nc1c2cccnc2n2nnc3ccc(Cl)cc3c12 | 0.136 µM | 0.701 µM
18 | CC/C=C\C[C@H](O)C/C=C1/C(=O)C=C[C@@H]1C/C=C\CCCC(N)=O | 1.12 µM | 2.86 µM
19 | Cc1ccc(S(=O)(=O)NCCN2c3nc4ccccc4cc3Sc3cc4ccccc4nc32)cc1 | 13.1 µM | > 100 µM
20 | O=C1NC(=O)C(c2ccccc2Cl)=C1Nc1cccc(O)c1 | 0.706 µM | 7.16 µM
21 | CCc1ccc(C2=C(O)C(=O)C(c3ccc(CC)cc3)=C(O)C2=O)cc1 | 1.86 µM | 6.26 µM
22 | CC(=O)Oc1ccc2c(c1)CC[C@@H]1C2[C@@H](O[N+](=O)[O-])C[C@@]2(C)C1CC[C@@H]2O (some centres not stated) | 22.5 µM | 89.2 µM
23 | CCN(CC)CC(C)Nc1ccc(C)c2sc3ccccc3c(=O)c12 (configuration not stated) | 2.57 µM | 7.57 µM
24 | O=C(/C=C/c1ccc([N+](=O)[O-])o1)NNC(=O)c1cc2ccccc2cc1O | 0.721 µM | 3.59 µM
25 | CC1(C)C(=O)/C(=C\c2ccco2)C[C@]2(C)[C@H]3CC=C4[C@@H]5C[C@](C)(C(=O)O)CC[C@]5(C)CC[C@@]4(C)[C@]3(C)CC[C@@H]12 | 10.7 µM | 26.5 µM
26 | CCOC(=O)/C=C/c1ccc(C(=O)OCC)[nH]1 | 2.53 µM | 8.16 µM
27 | COc1cccc(C2c3cc4c(cc3OC(N3CCOCC3)C2C)OCO4)c1O (configuration not stated) | 4.26 µM | > 100 µM
28 | O=C(N/N=C/c1ccc(F)cc1)c1[nH]c2ccc(I)cc2c1-c1ccccc1 | 0.345 µM | 13.9 µM
29 | COC(=O)c1ccc2c(c1)c1c(C)c3cnccc3c(C)c1n2C | 0.225 µM | 0.677 µM
30 | Cc1ccc2c(c1)sc(-c1ccc(N(C)C)cc1)[n+]2C | 0.302 µM | 5.74 µM
31 | CCC(=O)N1C/C(=C/c2ccc(OC)cc2)C(=O)/C(=C/c2ccc(OC)cc2)C1 | 1.85 µM | 4.92 µM
